Measurements reported in BindingDB's records for doi:10.1002/syn.890150302 (Vanderbilt University, 1993).
Where “and” joins values, the source holds several entries; their conditions need not be identical. Equal values may be shown once.

molecular target: D(2) dopamine receptor (Rattus norvegicus, UniProt P61169)
Sequence (P61169 whole entry): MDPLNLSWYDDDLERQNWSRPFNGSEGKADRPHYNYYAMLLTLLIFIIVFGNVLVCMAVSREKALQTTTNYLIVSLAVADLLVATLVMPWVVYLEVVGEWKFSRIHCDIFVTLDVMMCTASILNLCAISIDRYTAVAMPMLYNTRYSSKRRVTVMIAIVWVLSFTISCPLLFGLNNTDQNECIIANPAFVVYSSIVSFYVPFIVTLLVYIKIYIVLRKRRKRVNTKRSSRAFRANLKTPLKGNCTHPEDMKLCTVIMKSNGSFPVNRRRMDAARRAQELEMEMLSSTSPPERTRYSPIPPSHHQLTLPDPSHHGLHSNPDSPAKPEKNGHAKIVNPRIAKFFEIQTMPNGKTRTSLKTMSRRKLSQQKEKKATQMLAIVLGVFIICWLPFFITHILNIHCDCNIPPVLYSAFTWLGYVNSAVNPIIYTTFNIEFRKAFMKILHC

Q: With `CCN1CCC[C@H]1CNC(=O)c1cc(I)cc(OC)c1OC` as the compound, how does the Ki read?
A: The Ki was 0.0001 µM and 0.00012 µM.

Q: How did the Ki turn out when `COc1cc2nc(N3CCN(C(=O)c4ccco4)CC3)nc(N)c2cc1OC` [[3H]-Minipress] was run?
A: The Ki was over 10 µM.

Q: For `CN1[C@@H]2CC[C@H]1C[C@@H](OC(=O)c1cc(Cl)cc(Cl)c1)C2` [TROPANYL 3,5-DICHLOROBENZOATE], which Ki is on record?
A: Its Ki is over 10 µM.

Q: With `NCc1cc(=O)[nH]o1` as the compound, how does the Ki read?
A: Its Ki is over 10 µM.

Q: With `C=CCc1ccccc1OC[C@@H](O)CNC(C)C` [ALPRENOLOL,(-)] as the compound, how does the Ki read?
A: The Ki was > 10 µM and 6.86 µM.

Q: How did the Ki turn out when `c1ccc2c(c1)OCC(C1=NCCN1)O2` (centres undefined) was run?
A: The Ki was over 10 µM.

Q: `C=CCN1CC[C@]2(C)c3cc(O)ccc3C[C@@H]1[C@@H]2C` [SKF 10,047 (-)] was tested. Which Ki did it give?
A: Its Ki is over 10 µM.

Q: `O=C(c1ccc(F)cc1)C1CCN(CCn2c(=O)[nH]c3ccccc3c2=O)CC1` [3-(2-{4-[(4-fluorophenyl)carbonyl]piperidin-1-yl}ethyl)-1,2,3,4-tetrahydroquinazoline-2,4-dione] was tested. Which Ki did it give?
A: Its Ki is 0.555 µM and 0.519 µM.

Q: Which Ki does the source give for `CN1CCc2cc3c(cc2[C@H]1[C@@H]1OC(=O)c2c1ccc1c2OCO1)OCO3` [(R)-6-((S)-6-methyl-5,6,7,8-tetrahydro-[1,3]dioxolo[4,5-g]isoquinolin-5-yl)isobenzofuro[5,4-d][1,3]dioxol-8(6H)-one] here?
A: Its Ki is over 10 µM.
